Experimental data: the supplement of paper PMC4862054

Tested on: CAL-51
Experiment: normalised viability (% of control), CellTiter-Blue; higher = more viable cells (about 100 = DMSO control)
Conditions: 30 nM; incubation time: 72 h
Procedure, shortened: (§1)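 Vehicle (100) and a positive kill control (0) anchored the normalisation of each plate, and Z'-factor was used for quality control. Breast cancer cell lines in 20 µl suspension were incubated 72 h over compound in 5 µl medium in 384-well plates, followed by CellTiter-Blue at 560/590 nm. The value is normalised viability at a single listed concentration of the series.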

Point of comparison: COC(=O)c1ccc2c(c1)NC(=O)/C2=C(\Nc1ccc(N(C)C(=O)CN2CCN(C)CC2)cc1)c1ccccc1 [BIBF 1120], normalised viability 96.3%. Against it:
- Nc1cc(C(F)(F)F)c(-c2cc(N3CCOCC3)nc(N3CCOCC3)n2)cn1 [BKM-120] — lower, 92.1%
- O=C(/C=C/c1cccc(S(=O)(=O)Nc2ccccc2)c1)NO [Belinostat] — higher, 103%
- C=C1C[C@@H]2[C@H](CC[C@]3(C)C(=O)CC[C@@H]23)[C@@]2(C)C=CC(=O)C=C12 [Exemestane] — lower, 95.8%

Same assay, conditions: 100 nM; incubation time: 72 h

Point of comparison: N#Cc1ccc(COC[C@H]2O[C@@H](n3c(NCc4ccc(Cl)c(Cl)c4)nc4c(N)ncnc43)[C@H](O)[C@@H]2O)cc1, normalised viability 110%. Against it:
- Cc1cc(Nc2cc(CN3CCOCC3)c3nc(C)c(Cc4ccc(Cl)cc4F)n3n2)n[nH]1 — lower, 94.2%
- COc1cc(OC2CCN(C)CC2)ccc1Nc1ncc2c(n1)n(C1CCCC1)c(=O)n2C [AZ 3146] — lower, 87.8%
- CN(C)c1nc(N(C)C)nc(N(C)C)n1 [Altretamine] — lower, 105%
- COC(=O)c1ccc2c(c1)NC(=O)/C2=C(\Nc1ccc(N(C)C(=O)CN2CCN(C)CC2)cc1)c1ccccc1 [BIBF 1120] — lower, 100%
- Nc1cc(C(F)(F)F)c(-c2cc(N3CCOCC3)nc(N3CCOCC3)n2)cn1 [BKM-120] — lower, 84.3%
- O=C(/C=C/c1cccc(S(=O)(=O)Nc2ccccc2)c1)NO [Belinostat] — higher, 115%
- C=C1C[C@@H]2[C@H](CC[C@]3(C)C(=O)CC[C@@H]23)[C@@]2(C)C=CC(=O)C=C12 [Exemestane] — lower, 86.5%

Same assay, conditions: 120 nM; incubation time: 72 h

Molecule O=P1(N(CCCl)CCCl)NCCCO1 (stereo unspecified) [Cyclophosphamide] has a normalised viability of 99%.

Same assay, conditions: 400 nM; incubation time: 72 h

O=P1(N(CCCl)CCCl)NCCCO1 (stereo unspecified) [Cyclophosphamide] gave a normalised viability of 111%.

Tested on: CAL-85-1
Experiment: as above
Conditions: 3 nM; incubation time: 72 h
Procedure, shortened: as §1

Point of comparison: Nc1cc(C(F)(F)F)c(-c2cc(N3CCOCC3)nc(N3CCOCC3)n2)cn1 [BKM-120], normalised viability 95.8%. Against it:
- Cc1cc(Nc2cc(CN3CCOCC3)c3nc(C)c(Cc4ccc(Cl)cc4F)n3n2)n[nH]1 — lower, 87.2%
- N#Cc1ccc(COC[C@H]2O[C@@H](n3c(NCc4ccc(Cl)c(Cl)c4)nc4c(N)ncnc43)[C@H](O)[C@@H]2O)cc1 — higher, 108%
- COc1cc(OC2CCN(C)CC2)ccc1Nc1ncc2c(n1)n(C1CCCC1)c(=O)n2C [AZ 3146] — higher, 111%
- CN(C)c1nc(N(C)C)nc(N(C)C)n1 [Altretamine] — higher, 105%
- COC(=O)c1ccc2c(c1)NC(=O)/C2=C(\Nc1ccc(N(C)C(=O)CN2CCN(C)CC2)cc1)c1ccccc1 [BIBF 1120] — higher, 97.1%
- O=C(/C=C/c1cccc(S(=O)(=O)Nc2ccccc2)c1)NO [Belinostat] — lower, 95.7%
- C=C1C[C@@H]2[C@H](CC[C@]3(C)C(=O)CC[C@@H]23)[C@@]2(C)C=CC(=O)C=C12 [Exemestane] — lower, 90.6%

Same assay, conditions: 12 nM; incubation time: 72 h

Molecule O=P1(N(CCCl)CCCl)NCCCO1 (stereo unspecified) [Cyclophosphamide] has a normalised viability of 98.8%.

Same assay, conditions: 30 nM; incubation time: 72 h

Point of comparison: O=C(/C=C/c1cccc(S(=O)(=O)Nc2ccccc2)c1)NO [Belinostat], normalised viability 79.5%. Against it:
- Cc1cc(Nc2cc(CN3CCOCC3)c3nc(C)c(Cc4ccc(Cl)cc4F)n3n2)n[nH]1 — higher, 83.3%
- N#Cc1ccc(COC[C@H]2O[C@@H](n3c(NCc4ccc(Cl)c(Cl)c4)nc4c(N)ncnc43)[C@H](O)[C@@H]2O)cc1 — higher, 107%
- COc1cc(OC2CCN(C)CC2)ccc1Nc1ncc2c(n1)n(C1CCCC1)c(=O)n2C [AZ 3146] — higher, 109%
- CN(C)c1nc(N(C)C)nc(N(C)C)n1 [Altretamine] — higher, 91.5%
- COC(=O)c1ccc2c(c1)NC(=O)/C2=C(\Nc1ccc(N(C)C(=O)CN2CCN(C)CC2)cc1)c1ccccc1 [BIBF 1120] — higher, 98.3%
- Nc1cc(C(F)(F)F)c(-c2cc(N3CCOCC3)nc(N3CCOCC3)n2)cn1 [BKM-120] — higher, 80.2%
- C=C1C[C@@H]2[C@H](CC[C@]3(C)C(=O)CC[C@@H]23)[C@@]2(C)C=CC(=O)C=C12 [Exemestane] — higher, 81.8%

Same assay, conditions: 100 nM; incubation time: 72 h

Point of comparison: Nc1cc(C(F)(F)F)c(-c2cc(N3CCOCC3)nc(N3CCOCC3)n2)cn1 [BKM-120], normalised viability 92%. Against it:
- Cc1cc(Nc2cc(CN3CCOCC3)c3nc(C)c(Cc4ccc(Cl)cc4F)n3n2)n[nH]1 — higher, 93.1%
- N#Cc1ccc(COC[C@H]2O[C@@H](n3c(NCc4ccc(Cl)c(Cl)c4)nc4c(N)ncnc43)[C@H](O)[C@@H]2O)cc1 — higher, 110%
- COc1cc(OC2CCN(C)CC2)ccc1Nc1ncc2c(n1)n(C1CCCC1)c(=O)n2C [AZ 3146] — higher, 102%
- CN(C)c1nc(N(C)C)nc(N(C)C)n1 [Altretamine] — higher, 119%
- COC(=O)c1ccc2c(c1)NC(=O)/C2=C(\Nc1ccc(N(C)C(=O)CN2CCN(C)CC2)cc1)c1ccccc1 [BIBF 1120] — higher, 99.6%
- O=C(/C=C/c1cccc(S(=O)(=O)Nc2ccccc2)c1)NO [Belinostat] — lower, 86.8%
- C=C1C[C@@H]2[C@H](CC[C@]3(C)C(=O)CC[C@@H]23)[C@@]2(C)C=CC(=O)C=C12 [Exemestane] — lower, 89.8%

Same assay, conditions: 120 nM; incubation time: 72 h

O=P1(N(CCCl)CCCl)NCCCO1 (stereo unspecified) [Cyclophosphamide] was tested, and the normalised viability was 89.9%.

Same assay, conditions: 400 nM; incubation time: 72 h

Molecule O=P1(N(CCCl)CCCl)NCCCO1 (stereo unspecified) [Cyclophosphamide] has a normalised viability of 97.5%.

Tested on: DU-4475
Experiment: as above
Conditions: 3 nM; incubation time: 72 h
Procedure, shortened: as §1

Point of comparison: O=C(/C=C/c1cccc(S(=O)(=O)Nc2ccccc2)c1)NO [Belinostat], normalised viability 99.9%. Against it:
- Cc1cc(Nc2cc(CN3CCOCC3)c3nc(C)c(Cc4ccc(Cl)cc4F)n3n2)n[nH]1 — higher, 110%
- N#Cc1ccc(COC[C@H]2O[C@@H](n3c(NCc4ccc(Cl)c(Cl)c4)nc4c(N)ncnc43)[C@H](O)[C@@H]2O)cc1 — lower, 97.8%
- COc1cc(OC2CCN(C)CC2)ccc1Nc1ncc2c(n1)n(C1CCCC1)c(=O)n2C [AZ 3146] — higher, 111%
- CN(C)c1nc(N(C)C)nc(N(C)C)n1 [Altretamine] — lower, 94.6%
- COC(=O)c1ccc2c(c1)NC(=O)/C2=C(\Nc1ccc(N(C)C(=O)CN2CCN(C)CC2)cc1)c1ccccc1 [BIBF 1120] — lower, 94.6%
- Nc1cc(C(F)(F)F)c(-c2cc(N3CCOCC3)nc(N3CCOCC3)n2)cn1 [BKM-120] — higher, 104%
- C=C1C[C@@H]2[C@H](CC[C@]3(C)C(=O)CC[C@@H]23)[C@@]2(C)C=CC(=O)C=C12 [Exemestane] — lower, 95.1%

Same assay, conditions: 12 nM; incubation time: 72 h

O=P1(N(CCCl)CCCl)NCCCO1 (stereo unspecified) [Cyclophosphamide] gave a normalised viability of 110%.

Same assay, conditions: 30 nM; incubation time: 72 h

Point of comparison: C=C1C[C@@H]2[C@H](CC[C@]3(C)C(=O)CC[C@@H]23)[C@@]2(C)C=CC(=O)C=C12 [Exemestane], normalised viability 98%. Against it:
- Cc1cc(Nc2cc(CN3CCOCC3)c3nc(C)c(Cc4ccc(Cl)cc4F)n3n2)n[nH]1 — lower, 94.7%
- N#Cc1ccc(COC[C@H]2O[C@@H](n3c(NCc4ccc(Cl)c(Cl)c4)nc4c(N)ncnc43)[C@H](O)[C@@H]2O)cc1 — lower, 88.7%
- COc1cc(OC2CCN(C)CC2)ccc1Nc1ncc2c(n1)n(C1CCCC1)c(=O)n2C [AZ 3146] — lower, 90%
- CN(C)c1nc(N(C)C)nc(N(C)C)n1 [Altretamine] — lower, 83.6%
- COC(=O)c1ccc2c(c1)NC(=O)/C2=C(\Nc1ccc(N(C)C(=O)CN2CCN(C)CC2)cc1)c1ccccc1 [BIBF 1120] — higher, 100%
- Nc1cc(C(F)(F)F)c(-c2cc(N3CCOCC3)nc(N3CCOCC3)n2)cn1 [BKM-120] — lower, 93.3%
- O=C(/C=C/c1cccc(S(=O)(=O)Nc2ccccc2)c1)NO [Belinostat] — higher, 106%

Same assay, conditions: 100 nM; incubation time: 72 h

Point of comparison: COc1cc(OC2CCN(C)CC2)ccc1Nc1ncc2c(n1)n(C1CCCC1)c(=O)n2C [AZ 3146], normalised viability 100%. Against it:
- Cc1cc(Nc2cc(CN3CCOCC3)c3nc(C)c(Cc4ccc(Cl)cc4F)n3n2)n[nH]1 — higher, 122%
- N#Cc1ccc(COC[C@H]2O[C@@H](n3c(NCc4ccc(Cl)c(Cl)c4)nc4c(N)ncnc43)[C@H](O)[C@@H]2O)cc1 — higher, 113%
